# Measured values reported in ChEMBL document CHEMBL1156052, “Discovery of 1-[4-(3-chlorophenylamino)-1-methyl-1H-pyrrolo[3,2-c]pyridin-7-yl]-1-morpholin-4-ylmethanone (GSK554418A), a brain penetrant 5-azaindole CB2 agonist for the treatment of chronic pain” (J Med Chem, 2009).
# Calls of active or inactive are those of the source. No cut-off for these calls is given here.
# Key:
# [1] = biological target: Histamine H1 receptor (Homo sapiens) (UniProt P35367); assay: Binding affinity to human histamine H1 receptor at 1 uM
# [2] = biological target: Muscarinic acetylcholine receptor M3 (Homo sapiens) (UniProt P20309); assay: Binding affinity to human muscarinic M3 receptor at 1 uM
# [3] = Oral bioavailability in Sprague-Dawley rat at 2 mg/kg after 0.8 hrs; format: ADME, organism-based; conditions: in vivo
# Rattus norvegicus [4] = assay: Antihyperalgesic activity in complete Freund's adjuvant rat model of inflammatory pain assessed as reversal of hypersensitivity at 0.1 mg/kg, po administered as single dose measured after 1 hr; format: functional, organism-based; parameters: dose 0.1 mg/kg
# Rattus norvegicus [5] = assay: Antihyperalgesic activity in complete Freund's adjuvant rat model of inflammatory pain assessed as reversal of hyperalgesia at 1 mg/kg, po administered as single dose; format: functional, organism-based; parameters: dose 1 mg/kg
# Rattus norvegicus [6] = assay: Antihyperalgesic activity in complete Freund's adjuvant rat model of inflammatory pain assessed as reversal of hyperalgesia at 1 mg/kg, po administered as single dose in presence of 15 mg/kg, ip cannabinoid CB2 receptor antagonsit AM630; format: functional, organism-based
# [7] = Drug level in blood of rat joint model of chronic pain at 3 mg/kg, po BID for 5 days; format: ADME, organism-based; parameters: dose 3 mg/kg, route oral; conditions: read-out: Drug uptake
# [8] = Drug level in rat blood at 130 mg/kg, po after 1 hr; format: ADME, organism-based; parameters: dose 130 mg/kg, route oral; conditions: read-out: Drug uptake
# Cannabinoid receptor 2 [9] = biological target: T1, Cannabinoid receptor 2 (Homo sapiens, UniProt P34972); assay: Agonist activity at human recombinant cannabinoid CB2 receptor expressed in MMY23 Saccharomyces cerevisiae assessed as degradation of FDGlu to fluorescein after 24 hrs by spectrofluorimetry relative to HU210; format: functional
# Cytochrome P450 1A2 = Cytochrome P450 1A2 (Homo sapiens, UniProt P05177); assay: Inhibition of CYP1A2; format: ADME
# Cytochrome P450 2C19 = Cytochrome P450 2C19 (Homo sapiens, UniProt P33261); assay: Inhibition of CYP2C19; format: ADME
# Cannabinoid receptor 2 [10] = biological target: T1, Cannabinoid receptor 2; assay: Agonist activity at human recombinant cannabinoid CB2 receptor expressed in CHOK1 cells assessed as forskolin-induced cAMP production by luciferase assay; format: functional, cell-based, CHO-K1
# Cannabinoid receptor 2 [11] = biological target: T1, Cannabinoid receptor 2; assay: Agonist activity at human recombinant cannabinoid CB2 receptor expressed in CHOK1 cells assessed as forskolin-induced cAMP production at 20 uM by luciferase assay relative to HU210; format: functional, cell-based; conditions: CHO-K1
# [12] = biological target: Kappa-type opioid receptor (Homo sapiens) (UniProt P41145); assay: Binding affinity to kappa opioid receptor at 1 uM
# [13] = biological target: Sodium-dependent noradrenaline transporter (Homo sapiens) (UniProt P23975); assay: Binding affinity to NET at 1 uM
# [14] = biological target: Adenosine receptor A1 (Homo sapiens) (UniProt P30542); assay: Binding affinity to human adenosine A1 receptor at 1 uM
# [15] = Binding affinity to central benzodiazepine receptor at 1 uM
# T1 sequence (P34972 whole entry): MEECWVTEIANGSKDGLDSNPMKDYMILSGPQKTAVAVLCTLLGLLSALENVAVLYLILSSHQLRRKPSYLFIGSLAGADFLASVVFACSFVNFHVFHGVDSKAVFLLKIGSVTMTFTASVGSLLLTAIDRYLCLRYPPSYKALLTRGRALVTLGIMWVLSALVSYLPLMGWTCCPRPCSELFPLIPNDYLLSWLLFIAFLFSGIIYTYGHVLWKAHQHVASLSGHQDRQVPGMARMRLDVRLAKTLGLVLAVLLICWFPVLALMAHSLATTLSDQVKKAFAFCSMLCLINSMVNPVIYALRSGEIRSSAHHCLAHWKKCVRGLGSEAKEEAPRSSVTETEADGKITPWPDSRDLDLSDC
# Sequence of Kappa-type opioid receptor (Homo sapiens) (P41145 whole entry): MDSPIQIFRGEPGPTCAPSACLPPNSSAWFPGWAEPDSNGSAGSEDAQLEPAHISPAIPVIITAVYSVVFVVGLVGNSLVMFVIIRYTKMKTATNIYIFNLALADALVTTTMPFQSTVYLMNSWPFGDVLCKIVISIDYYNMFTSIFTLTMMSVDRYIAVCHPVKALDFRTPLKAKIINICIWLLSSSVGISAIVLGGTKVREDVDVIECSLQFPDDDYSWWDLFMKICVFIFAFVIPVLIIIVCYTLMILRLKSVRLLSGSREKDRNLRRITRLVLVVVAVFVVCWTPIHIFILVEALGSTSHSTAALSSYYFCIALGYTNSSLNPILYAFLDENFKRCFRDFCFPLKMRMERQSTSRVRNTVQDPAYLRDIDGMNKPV
# Sequence of Muscarinic acetylcholine receptor M3 (Homo sapiens) (P20309 whole entry, looked up): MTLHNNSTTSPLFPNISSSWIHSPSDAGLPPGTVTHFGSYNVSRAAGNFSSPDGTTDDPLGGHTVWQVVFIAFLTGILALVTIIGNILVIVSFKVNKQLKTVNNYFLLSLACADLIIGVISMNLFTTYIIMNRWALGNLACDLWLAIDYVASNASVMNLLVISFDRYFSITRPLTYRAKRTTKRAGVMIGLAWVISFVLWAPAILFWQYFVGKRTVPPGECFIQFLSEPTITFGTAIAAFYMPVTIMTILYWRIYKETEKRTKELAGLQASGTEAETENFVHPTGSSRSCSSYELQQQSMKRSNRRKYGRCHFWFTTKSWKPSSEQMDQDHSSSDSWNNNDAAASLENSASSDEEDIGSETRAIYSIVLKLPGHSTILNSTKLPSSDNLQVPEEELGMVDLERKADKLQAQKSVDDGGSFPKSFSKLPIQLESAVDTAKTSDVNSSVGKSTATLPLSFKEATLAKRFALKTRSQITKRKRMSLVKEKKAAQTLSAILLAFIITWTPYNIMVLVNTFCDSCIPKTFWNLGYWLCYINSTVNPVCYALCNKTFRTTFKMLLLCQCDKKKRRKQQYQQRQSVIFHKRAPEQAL
# Sequence of Cytochrome P450 1A2 (P05177 whole entry): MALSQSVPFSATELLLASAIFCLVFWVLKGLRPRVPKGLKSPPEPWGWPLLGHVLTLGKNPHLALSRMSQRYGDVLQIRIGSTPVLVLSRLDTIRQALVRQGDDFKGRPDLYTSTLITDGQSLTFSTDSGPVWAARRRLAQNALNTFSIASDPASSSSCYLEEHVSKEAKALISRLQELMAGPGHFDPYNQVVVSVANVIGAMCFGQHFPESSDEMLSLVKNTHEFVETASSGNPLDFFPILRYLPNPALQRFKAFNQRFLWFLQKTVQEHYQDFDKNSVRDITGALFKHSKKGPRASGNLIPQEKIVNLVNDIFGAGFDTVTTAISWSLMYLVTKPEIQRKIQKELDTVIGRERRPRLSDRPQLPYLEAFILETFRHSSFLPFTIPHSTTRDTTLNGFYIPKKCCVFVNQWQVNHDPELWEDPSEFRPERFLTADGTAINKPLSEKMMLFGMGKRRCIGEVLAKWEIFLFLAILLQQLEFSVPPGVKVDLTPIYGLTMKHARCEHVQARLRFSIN
# Sequence of Cytochrome P450 2C19 (P33261 whole entry): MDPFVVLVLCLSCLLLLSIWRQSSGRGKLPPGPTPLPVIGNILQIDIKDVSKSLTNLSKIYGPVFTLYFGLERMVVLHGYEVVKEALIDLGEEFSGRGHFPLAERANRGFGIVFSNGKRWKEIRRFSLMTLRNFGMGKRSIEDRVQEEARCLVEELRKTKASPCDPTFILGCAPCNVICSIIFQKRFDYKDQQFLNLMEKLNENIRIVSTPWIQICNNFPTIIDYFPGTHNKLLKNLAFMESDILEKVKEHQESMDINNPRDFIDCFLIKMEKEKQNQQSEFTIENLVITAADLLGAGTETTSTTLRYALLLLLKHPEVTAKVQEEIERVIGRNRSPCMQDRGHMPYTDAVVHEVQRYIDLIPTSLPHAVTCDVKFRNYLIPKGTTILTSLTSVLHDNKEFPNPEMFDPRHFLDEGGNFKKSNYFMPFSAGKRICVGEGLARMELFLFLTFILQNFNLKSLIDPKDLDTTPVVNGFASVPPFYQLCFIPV
# Sequence of Histamine H1 receptor (Homo sapiens) (P35367 whole entry): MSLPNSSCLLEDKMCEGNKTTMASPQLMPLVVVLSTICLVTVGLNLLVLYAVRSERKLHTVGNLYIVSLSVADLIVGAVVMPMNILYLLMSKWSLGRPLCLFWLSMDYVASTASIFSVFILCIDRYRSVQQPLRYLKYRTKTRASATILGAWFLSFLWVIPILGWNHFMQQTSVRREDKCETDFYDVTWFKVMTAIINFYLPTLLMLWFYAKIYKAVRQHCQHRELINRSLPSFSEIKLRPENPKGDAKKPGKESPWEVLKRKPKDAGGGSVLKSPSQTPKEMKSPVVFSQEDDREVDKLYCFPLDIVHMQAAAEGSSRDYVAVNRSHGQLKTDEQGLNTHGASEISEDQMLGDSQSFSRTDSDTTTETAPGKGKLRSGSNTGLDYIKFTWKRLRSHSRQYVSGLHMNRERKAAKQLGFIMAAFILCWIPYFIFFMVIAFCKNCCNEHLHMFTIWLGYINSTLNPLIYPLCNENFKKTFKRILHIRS
# Sequence of Adenosine receptor A1 (Homo sapiens) (P30542 whole entry): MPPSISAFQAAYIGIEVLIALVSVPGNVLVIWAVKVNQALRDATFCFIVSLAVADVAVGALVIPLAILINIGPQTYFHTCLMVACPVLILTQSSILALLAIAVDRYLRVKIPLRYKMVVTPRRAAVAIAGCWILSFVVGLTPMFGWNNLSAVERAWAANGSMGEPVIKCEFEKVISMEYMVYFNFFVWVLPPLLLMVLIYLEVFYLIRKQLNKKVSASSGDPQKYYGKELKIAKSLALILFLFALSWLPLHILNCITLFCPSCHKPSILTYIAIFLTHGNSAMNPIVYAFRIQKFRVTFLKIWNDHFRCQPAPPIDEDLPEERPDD
# Sequence of Sodium-dependent noradrenaline transporter (Homo sapiens) (P23975 whole entry): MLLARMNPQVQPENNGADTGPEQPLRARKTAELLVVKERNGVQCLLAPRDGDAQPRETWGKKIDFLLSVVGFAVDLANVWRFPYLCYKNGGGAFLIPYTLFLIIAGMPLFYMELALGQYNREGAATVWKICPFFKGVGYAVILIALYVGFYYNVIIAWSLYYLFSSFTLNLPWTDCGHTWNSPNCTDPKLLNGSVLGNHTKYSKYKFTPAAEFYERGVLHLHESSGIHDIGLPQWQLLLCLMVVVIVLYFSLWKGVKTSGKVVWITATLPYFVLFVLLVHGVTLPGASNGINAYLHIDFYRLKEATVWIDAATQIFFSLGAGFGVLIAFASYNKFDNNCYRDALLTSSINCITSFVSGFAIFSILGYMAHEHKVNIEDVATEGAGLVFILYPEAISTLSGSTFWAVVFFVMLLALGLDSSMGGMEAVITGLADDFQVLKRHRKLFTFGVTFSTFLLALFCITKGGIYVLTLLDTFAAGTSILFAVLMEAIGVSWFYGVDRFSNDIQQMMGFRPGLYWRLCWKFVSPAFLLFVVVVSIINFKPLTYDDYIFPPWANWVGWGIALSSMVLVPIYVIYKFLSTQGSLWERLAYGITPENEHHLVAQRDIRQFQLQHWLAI
compound,measurement,setting,value
Cn1ccc2c(Nc3cccc(Cl)c3)ncc(C(=O)N3CCOCC3)c21,Activity,[1],< 10%
same,Activity,[2],< 10%
same,bioavailability,[3],82%
same,Activity,Rattus norvegicus [4],Active
same,Activity,Rattus norvegicus [5],Active
same,Activity,Rattus norvegicus [6],Active
same,concentration at 120 h,[7],1.8 µM
same,concentration at 1 h,[8],8.6 µM
same,Efficacy,Cannabinoid receptor 2 [9],91%
same,IC50,Cytochrome P450 1A2,> 100 µM
same,IC50,Cytochrome P450 2C19,41 µM
same,EC50,Cannabinoid receptor 2 [10],0.008 µM
same,Efficacy,Cannabinoid receptor 2 [11],100%
same,Activity,[12],11%
same,Activity,[13],15%
same,Activity,[14],< 10%
same,Activity,[15],< 10%
